One series concerns the target 5-HT1D binding site. Kind of series: 5-HT1D binding site affinity (tritiated serotonin; method of Heuring and Peroutka with minor modifications). The settings on record: in vitro. The procedure: Determination of 5-HT1D binding properties was accomplished employing methodology such as that described by Heuring and Peroutka, J. Neurosci., 7(3), 1987, 894-903; with only minor modifications. In vitro IC50 (nM) test values were determined for the compounds of this invention employing tritiated serotonin.

Structures can show the parent of a compound that is named as a salt.

Regarding `COc1cncnc1N1CCN(CCCc2c[nH]c3ccc(C(C)=O)cc23)CC1.Cl`, the melting point (usually the temperature, or range, at which the solid turns liquid) was 215 to 217 °C (dec.).

As to `CCCCNC(=O)c1ccc2[nH]cc(CCCN3CCN(c4ncncc4OC)CC3)c2c1.Cl`, the melting point is 180 to 185 °C.

Turning to `COc1cncnc1N1CCN(CCCc2c[nH]c3ccc(N4CCCC4=O)cc23)CC1.O=C(O)C(=O)O`, the melting point lay in the range of 100 to 101 °C.

Regarding `CCS(=O)(=O)Nc1ccc2[nH]cc(CCCN3CCN(c4ncncc4OC)C(C)C3)c2c1` (centres unmarked) (as salt: HCl) (hydrate or solvate) [Example 70, 1-[3-(5-Ethanesulfonylamino-1H-indol-3-yl)propyl]-4-(5-methoxy-4-pyrimidinyl)-3-methylpiperazine], the melting point was 212 to 214 °C.

As for `COc1cncnc1N1CCN(CCCc2c[nH]c3ccc(OCc4ccccc4)cc23)CC1` (as salt: HCl) (hydrate or solvate) [Example 72], the melting point was 180 °C (dec.).

On to `COc1cncnc1N1CCN(CCCc2c[nH]c3ccccc23)CC1C` (centres unmarked) (as salt: HCl) [Example 62], for which the melting point is 185 °C (dec.).

`COc1cncnc1N1CCN(CCCc2c[nH]c3ccc(NS(C)(=O)=O)cc23)CC1` (as salt: HCl) [Example 63]: the melting point is 150 to 152 °C.

With `COc1cncnc1N1CCN(CCCc2c[nH]c3ccc(N(C)S(C)(=O)=O)cc23)CC1` (as salt: HCl) [Example 65], the melting point lay in the range of 227 to 230 °C.

In turn, `CCS(=O)(=O)Nc1ccc2[nH]cc(CCCN3CCN(c4ncncc4OC)CC3)c2c1` (as salt: HCl) [Example 67] returned a melting point of 140 to 145 °C.

In turn, `CCS(=O)(=O)N(C)c1ccc2[nH]cc(CCCN3CCN(c4ncncc4OC)CC3)c2c1` (as salt: HCl) [Example 68] returned a melting point of 223 to 225 °C.

`CCS(=O)(=O)N(C)c1ccc2[nH]cc(CCCN3CCN(c4ncncc4OC)C(C)C3)c2c1` (centres unmarked) (as salt: HCl) [Example 69] came in with a melting point of 205 to 207 °C.

As for `COc1ccc2[nH]cc(CCCN3CCN(c4ncncc4OC)CC3)c2c1` (as salt: HCl) [Example 73], the melting point is 130 to 150 °C (dec.).

For the compound `COc1cncnc1N1CCN(CCCc2c[nH]c3c(F)cc(F)cc23)CC1` (as salt: HCl) [Example 76], the melting point was > 250 °C (dec.).

Take `COc1cncnc1N1CCN(CCCc2c[nH]c3ccc(CS(=O)(=O)N(C)C)cc23)CC1` (as salt: hydrochloride) (hydrate or solvate) [Example 30, 1-[3-[5-[[(Dimethylamino)sulfonyl]methyl]-1H-indol-3-yl]propyl]-4-(5-methoxy-4-pyrimidinyl)piperazine]: the melting point was 210 °C (dec.).

Compound `COc1cncnc1N1CCN(CCCc2c[nH]c3ccc(CNS(C)(=O)=O)cc23)CC1` (as salt: hydrochloride) (hydrate or solvate) [Example 31, 4-(5-Methoxy-4-pyrimidinyl)-1-[[5-[[(methylsulfonyl)amino]methyl]-1H-indol-3-yl]propyl]piperazine] yielded a melting point of 204 to 206 °C.

In the case of `COc1cncnc1N1CCN(CCCc2c[nH]c3ccc(OCC#N)cc23)CC1` (as salt: hydrochloride) [Example 45, 3-[3-[4-(5-Methoxy-4-pyrimidinyl)-1-piperazinyl]propyl]-5-(cyanomethyl)oxyindole], the melting point was 198 to 200 °C (dec.).

As for `COc1cncnc1N1CCN(CCC(C)c2c[nH]c3ccccc23)CC1` (centres unmarked) (as salt: hydrochloride) [Example 53, 1-[3-(1H-indol-3-yl)butyl]-4-(5-methoxy-4-pyrimidinyl)piperazine], the melting point was 169 to 172 °C (dec.).

`COc1cncnc1N1CCN(CCCc2c[nH]c3ccc(O)cc23)CC1` (as salt: hydrochloride) [Example 55, 1-[3-(5-Hydroxy-1H-indol-3-yl)propyl]-4-(5-methoxy-4-pyrimidinyl)piperazine] yielded a melting point of 215 °C.

Take `COc1cncnc1N1CCN(CCCc2c[nH]c3ccc(F)cc23)CC1` (as salt: hydrochloride) [Example 60, 3-(3-(4-(5-methoxy-4-pyrimidinyl)-1-piperazinyl)propyl)-5-fluoro-1H-indole hydrochloride]: the melting point was 119 to 122 °C.

In turn, `COc1cncnc1N1CCN(CCCc2c[nH]c3ccc(N(C)S(=O)(=O)C(F)(F)F)cc23)CC1` (as salt: salt) [Example 26, 1-[3-[5-[Methyl(trifluoromethanesulfonyl)amino]-1H-indol-3-yl]propyl]-4-(5-methoxy-4-pyrimidinyl)piperazine] returned a melting point of more than 230 °C.

As for `COc1cncnc1N1CCN(CCCc2c[nH]c3ccc(N)cc23)CC1` (as salt: salt) [Example 43, 3-[3-[4-(5-Methoxy-4-pyrimidinyl)-1-piperazinyl]propyl]-5-aminoindole], the melting point is 192 °C (dec.).

In turn, `COc1cncnc1N1CCN(CCCc2c[nH]c3ccc(CCS(C)(=O)=O)cc23)CC1C` (centres unmarked) (as salt: salt) [Example 51, 4-(5-Methoxy-4-pyrimidinyl)-1-[3-[5-[2-(methylsulfonyl)ethyl]-1H-indol-3-yl]propyl]-3-methylpiperazine] showed a melting point of 220 to 223 °C.

As for `CCC(CCc1c[nH]c2ccccc12)N1CCN(c2ncncc2OC)CC1` (centres unmarked) (as salt: salt) [Example 54, 3-[3-[4-(5-Methoxy-4-pyrimidinyl)-1-piperazinyl]pentyl]indole], the melting point is 145 °C (dec.).

`COc1cncnc1N1CCN(CCCc2c[nH]c3ccc(CNC(C)=O)cc23)CC1` (hydrate or solvate) [Example 40, 1-[[5-[[(Acetyl)amino]methyl]-1H-indol-3-yl]propyl]-4-(5-methoxy-4-pyrimidinyl)piperazine] had a melting point of 169 to 174 °C.

Take `CCOc1cncnc1N1CCN(CCCc2c[nH]c3ccccc23)CC1.Cl.O` (hydrate or solvate) [Example 52, 4-(5-Ethoxy-4-pyrimidinyl)-1-[3-(1H-indol-3-yl)propyl]piperazine hydrochloride hydrate]: the melting point was more than 230 °C.

`CCS(=O)(=O)N(C)Cc1ccc2[nH]cc(CCCN3CCN(c4ncncc4OC)CC3)c2c1` [Example 38, 4-(5-Methoxy-4-pyrimidinyl)-1-[[5-[[methyl(ethylsulfonyl)amino]-methyl]-1H-indol-3-yl]propyl]piperazine] yielded a melting point of 113 to 115 °C.

Consider `CCS(=O)(=O)N(Cc1ccccc1)Cc1ccc2[nH]cc(CCCN3CCN(c4ncncc4OC)CC3)c2c1` [Example 39, 4-(5-Methoxy-4-pyrimidinyl)-1-[[5-[[phenylmethyl(ethylsulfonyl)amino]-methyl]-1H-indol-3-yl]propyl]piperazine], for which the melting point lay within 73 to 75 °C.

Compound `COc1cncnc1N1CCN(CCCc2c[nH]c3ccc(CCS(C)(=O)=O)cc23)CC1` [Example 50, 4-(5-Methoxy-4-pyrimidinyl)-1-[3-[5-[2-(methylsulfonyl)ethyl]-1H-indol-3-yl]propyl]piperazine] returned a melting point of 153 to 154 °C.

As to `CCOc1cncnc1N1CCN(CCCc2c[nH]c3ccccc23)CC1` [Example 52, 4-(5-Ethoxy-4-pyrimidinyl)-1-[3-(1H-indol-3-yl)propyl]piperazine hydrochloride hydrate], the half-inhibitory concentration (IC50) – broadly, the point on the concentration scale where inhibition reaches its midpoint – on 5-HT1D binding site is 2 nM.

With `COc1cncnc1N1CCN(CCC(C)c2c[nH]c3ccccc23)CC1` (centres unmarked) [Example 53, 1-[3-(1H-indol-3-yl)butyl]-4-(5-methoxy-4-pyrimidinyl)piperazine], the IC50 on 5-HT1D binding site worked out at 5 nM.

`CCC(CCc1c[nH]c2ccccc12)N1CCN(c2ncncc2OC)CC1` (centres unmarked) [Example 54, 3-[3-[4-(5-Methoxy-4-pyrimidinyl)-1-piperazinyl]pentyl]indole]: the IC50 on 5-HT1D binding site worked out at 20.5 nM.

As to `COc1cncnc1N1CCN(CCCc2c[nH]c3ccc(O)cc23)CC1` [Example 55, 1-[3-(5-Hydroxy-1H-indol-3-yl)propyl]-4-(5-methoxy-4-pyrimidinyl)piperazine], the IC50 at 5-HT1D binding site is 0.8 nM.

`COc1cncnc1N1CCN(CCCc2c[nH]c3ccc(F)cc23)CC1` [Example 60, 3-(3-(4-(5-methoxy-4-pyrimidinyl)-1-piperazinyl)propyl)-5-fluoro-1H-indole hydrochloride] had an IC50 on 5-HT1D binding site of 3 nM.

`COc1cncnc1N1CCN(CCCc2c[nH]c3ccccc23)CC1C` (centres unmarked) [Example 62] returned a concentration for half-maximal inhibition (IC50) on 5-HT1D binding site of 4.2 nM.

For `COc1cncnc1N1CCN(CCCc2c[nH]c3ccc(NS(C)(=O)=O)cc23)CC1` [Example 63], the IC50 on 5-HT1D binding site is 5.2 nM. This IC50 and that of the compound before are within 1.5-fold of each other.

On 5-HT1D binding site, `COc1cncnc1N1CCN(CCCc2c[nH]c3ccc(N(C)S(C)(=O)=O)cc23)CC1` [Example 65] gave a half-inhibitory concentration (IC50) of 4.9 nM. The IC50 values of the last two compounds are within 1.5-fold of each other.

For `CCS(=O)(=O)Nc1ccc2[nH]cc(CCCN3CCN(c4ncncc4OC)CC3)c2c1` [Example 67], the half-inhibitory concentration (IC50) at 5-HT1D binding site is 13.7 nM.

On to `CCS(=O)(=O)N(C)c1ccc2[nH]cc(CCCN3CCN(c4ncncc4OC)CC3)c2c1` [Example 68], for which the 50% inhibitory concentration (IC50) on 5-HT1D binding site came out at 12.9 nM.

At 5-HT1D binding site, `CCS(=O)(=O)N(C)c1ccc2[nH]cc(CCCN3CCN(c4ncncc4OC)C(C)C3)c2c1` (centres unmarked) [Example 69] gave a 50% inhibitory concentration (IC50) of 19.1 nM.

At 5-HT1D binding site, `CCS(=O)(=O)Nc1ccc2[nH]cc(CCCN3CCN(c4ncncc4OC)C(C)C3)c2c1` (centres unmarked) [Example 70, 1-[3-(5-Ethanesulfonylamino-1H-indol-3-yl)propyl]-4-(5-methoxy-4-pyrimidinyl)-3-methylpiperazine] showed a half-inhibitory concentration (IC50) of 17.1 nM.

As to `CCOc1ccc2[nH]cc(CCCN3CCN(c4ncncc4OC)CC3)c2c1` [Example 71], the melting point is 112 to 114 °C. Also, the IC50 at 5-HT1D binding site is 2.2 nM.

Take `COc1cncnc1N1CCN(CCCc2c[nH]c3ccc(OCc4ccccc4)cc23)CC1` [Example 72]: the 50% inhibitory concentration (IC50) on 5-HT1D binding site was found to be 14.3 nM.

On 5-HT1D binding site, `COc1ccc2[nH]cc(CCCN3CCN(c4ncncc4OC)CC3)c2c1` [Example 73] displayed a half-inhibitory concentration (IC50) of 1.1 nM.

The compound `COc1cncnc1N1CCN(CCCc2c[nH]c3cc(F)c(F)cc23)CC1` [Example 74] yielded a melting point of 102 to 104 °C. Further, the IC50 on 5-HT1D binding site was found to be 29 nM.

As to `COc1cncnc1N1CCN(CCCc2c[nH]c3c(F)cc(F)cc23)CC1` [Example 76], the IC50 at 5-HT1D binding site came out at 8.1 nM.
